Earlier results as cited in US12564551B2, “Composition or oat extract comprising avenanthramide and β-glucan” (SYMRISE AG, priority 2020, dated 2026).

Settings: Avn C, followed by Avn B and Avn A

## O=C(C=Cc1ccc(O)c(O)c1)Nc1ccc(O)cc1C(=O)O [Avn C, N-(3′,4′-dihydroxycinnamoyl)-5-hydroxyanthranilic acid]
  antioxidant activity, rank among Avns (in words): highest activity
